Results as given in US6503449B1, “Process for the control of microbial contamination in water-based solids suspensions” (Ciba Specialty Chemicals Corporation, priority 1998, dated 2003).

What was measured:
Type in all cases: cell-based
Gram positive organisms = assay: Single/multiple pass through 2406 Nearfield Accoustical Processor with biocide, Nutrient Agar plates; conditions: 250 ppm; after four passes through the sonicator, 16 kHz and 20 kHz, 750 kg/hr; initial count 4.8×10^6 cfu per millilitre
From the text: (§1) A mixture of Pigment Red 23,215.5 parts, Emulan OG (RTM) (35% solution in water), 153.7 parts, tributyl phosphate, 2 parts, and water, 128.8 parts are dispersed by re-circulation through a Bachofen KDL200 bead-mill until colouristic properties are within specification of UNISPERSE (RTM) Red RBS-PI as detailed in Example 1 and adjusted to pH 8.0-8.5 with 20% sodium hydroxide solution. This material is identified as having a bacterial count of 4.8×10^6 colony-forming units (cfu) per millilitre comprised of a mixture of Gram positive and Gram negative bacteria. It is treated with 250 parts per million(ppm) of pentane 1,5-dialdehyde and pumped through a 2406 Nearfield Accoustical Processor sonicating at 16 kHz and 20 kHz respectively with a plate separation of 6 mm (approximately) at a flow rate of 750 kg/hr. Assessment bacterial activity is then done by spreading a sample of the pigment dispersion on Nutrient Agar(NA) plates and incubating at 30° C. for 48 hours. […] The temperature rise is 1° C. per pass, from a starting value of 20° C.

Gram negative organisms = assay: as above; conditions: 250 ppm; after one pass through the sonicator, 16 kHz and 20 kHz, 750 kg/hr; initial count 4.8×10^6 cfu per millilitre
From the text: as §1

[1] = test system: Xanthomonas maltophilia and Pseudomonas mendocina; assay: Sonication of Pigment Red 53.1 dispersion with biocide, bacterial contamination check
From the text: A mixture of Pigment Red 23, available from Ciba Specialty Chemicals(UK) Ltd., 215.5 parts, Emulan OG (RTM) (35% solution in water), available from BASF, 153.7 parts, tributyl phosphate, available from Albright & Wilson, 2 parts, and water, 128.8 parts, are dispersed by re-circulation through a Bachofen KDL200 bead-mill until colouristic properties are within specification of UNISPERSE (RTM) Red RBS-PI, available from Ciba Specialty Chemicals(UK) Ltd., and adjusted to pH 8.0-8.5 with 20% sodium hydroxide solution. This material is identified as containing the Gram negative bacterium, Pseudomonas putida. 50 millilitre aliquots of this dispersion containing levels of glutaraldehyde (pentane-1,5-dialdehyde), available as the trade product Protectol GDA form BASF or Ucarcide from Union Carbide, between 0 parts per million (ppm) and 2000 ppm are sonicated using a Branson MSE sonicator with a 19 mm horn probe resonating at 20 kHz with an amplitude of 6 microns. Sonication is undertaken in a 100 millilitre glass beaker, diameter 38 mm, with magnetic flea agitator and cooled in a water/ice bath to maintain temperature at 28-32° C. Bacterial growth in each sample is assessed at 5 minute intervals by streaking each dispersion on to Nutrient Agar(NA) plates and incubating the plates for a minimum of 48 hours at 30° C. The plates are then examined for bacterial colonies and expressed according to the following notation:
A mixture of Pigment Red 53.1, available from S&D Chemicals Ltd., 37 parts, Emulan OG (35% solution), 25.9 parts, 2-ethylhexanoic acid, available from Barratt Chemicals Ltd., 3 parts tributyl phosphate, 0.3 parts, and water 31.74 parts are dispersed by a single pass through a Bachofen KDL Special beadmill containing 1.0 mm Yttrium-stabilised Zirconium Oxide beads. This material is identified as containing the Gram negative bacteria, Xanthomonas maltophilia and Pseudomonas mendocina. 50 millilitre aliquots of this dispersion are treated with pentane-1,5-dialdehyde (Ucarcide 250) and CIT/MIT mixture (Acticide LG) according to the process defined in Example 1 and each sample checked for bacterial contamination according to the following table: […]

SMILES: O=CCCCC=O [glutaraldehyde, pentane-1,5-dialdehyde]
- bacterial activity on Nutrient Agar plates, Gram positive organisms (Gram positive organisms): no Gram positive organisms are found
- bacterial activity on Nutrient Agar plates, Gram negative organisms (Gram negative organisms): no Gram negative organisms are evident
- bacterial contamination ([1]; 500 ppm Ucarcide 250, 3 days after sonication): +++ (heavy contamination(>10^5 cfu/ml))
- bacterial contamination ([1]; 500 ppm Ucarcide 250, 7 days after sonication): +++ (heavy contamination(>10^5 cfu/ml))
- bacterial contamination ([1]; 500 ppm Ucarcide 250, 14 days after sonication): +++ (heavy contamination(>10^5 cfu/ml))
- bacterial contamination ([1]; 500 ppm Ucarcide 250, 28 days after sonication): +++ (heavy contamination(>10^5 cfu/ml))
- bacterial contamination ([1]; 500 ppm Ucarcide 250, 90 days after sonication): +++ (heavy contamination(>10^5 cfu/ml))
- bacterial contamination ([1]; 500 ppm Ucarcide 250, sonicated 0 mins.): +++ (heavy contamination(>10^5 cfu/ml))
- bacterial contamination ([1]; 500 ppm Ucarcide 250, sonicated 5 mins.): +++ (heavy contamination(>10^5 cfu/ml))
- bacterial contamination ([1]; 500 ppm Ucarcide 250, sonicated 10 mins.): +++ (heavy contamination(>10^5 cfu/ml))
- bacterial contamination ([1]; 500 ppm Ucarcide 250, sonicated 15 mins.): +++ (heavy contamination(>10^5 cfu/ml))
- bacterial contamination ([1]; 500 ppm Ucarcide 250, sonicated 20 mins.): +++ (heavy contamination(>10^5 cfu/ml))
- bacterial contamination ([1]; 500 ppm Ucarcide 250, sonicated 25 mins.): +++ (heavy contamination(>10^5 cfu/ml))
- bacterial contamination ([1]; 500 ppm Ucarcide 250, sonicated 30 mins.): ++ (moderate contamination(10^3-10^5 cfu/ml))
- bacterial contamination ([1]; 500 ppm Ucarcide 250, sonicated 35 mins.): ++ (moderate contamination(10^3-10^5 cfu/ml))
- bacterial contamination ([1]; 500 ppm Ucarcide 250, sonicated 40 mins.): ++ (moderate contamination(10^3-10^5 cfu/ml))
- bacterial contamination ([1]; 500 ppm Ucarcide 250, sonicated 45 mins.): ++ (moderate contamination(10^3-10^5 cfu/ml))
- bacterial contamination ([1]; 500 ppm Ucarcide 250, sonicated 50 mins.): ++ (moderate contamination(10^3-10^5 cfu/ml))
- bacterial contamination ([1]; 500 ppm Ucarcide 250, sonicated 55 mins.): + (light contamination (10^0 and 10^3 cfu/ml))
- bacterial contamination ([1]; 500 ppm Ucarcide 250, sonicated 60 mins.): + (light contamination (10^0 and 10^3 cfu/ml))
- bacterial contamination ([1]; 750 ppm Ucarcide 250, 3 days after sonication): +++ (heavy contamination(>10^5 cfu/ml))
- bacterial contamination ([1]; 750 ppm Ucarcide 250, 7 days after sonication): +++ (heavy contamination(>10^5 cfu/ml))
- bacterial contamination ([1]; 750 ppm Ucarcide 250, 14 days after sonication): +++ (heavy contamination(>10^5 cfu/ml))
- bacterial contamination ([1]; 750 ppm Ucarcide 250, 28 days after sonication): +++ (heavy contamination(>10^5 cfu/ml))
- bacterial contamination ([1]; 750 ppm Ucarcide 250, 90 days after sonication): +++ (heavy contamination(>10^5 cfu/ml))
- bacterial contamination ([1]; 750 ppm Ucarcide 250, sonicated 0 mins.): +++ (heavy contamination(>10^5 cfu/ml))
- bacterial contamination ([1]; 750 ppm Ucarcide 250, sonicated 5 mins.): +++ (heavy contamination(>10^5 cfu/ml))
- bacterial contamination ([1]; 750 ppm Ucarcide 250, sonicated 10 mins.): +++ (heavy contamination(>10^5 cfu/ml))
- bacterial contamination ([1]; 750 ppm Ucarcide 250, sonicated 15 mins.): +++ (heavy contamination(>10^5 cfu/ml))
- bacterial contamination ([1]; 750 ppm Ucarcide 250, sonicated 20 mins.): +++ (heavy contamination(>10^5 cfu/ml))
- bacterial contamination ([1]; 750 ppm Ucarcide 250, sonicated 25 mins.): +++ (heavy contamination(>10^5 cfu/ml))
- bacterial contamination ([1]; 750 ppm Ucarcide 250, sonicated 30 mins.): ++ (moderate contamination(10^3-10^5 cfu/ml))
- bacterial contamination ([1]; 750 ppm Ucarcide 250, sonicated 35 mins.): ++ (moderate contamination(10^3-10^5 cfu/ml))
- bacterial contamination ([1]; 750 ppm Ucarcide 250, sonicated 40 mins.): ++ (moderate contamination(10^3-10^5 cfu/ml))
- bacterial contamination ([1]; 750 ppm Ucarcide 250, sonicated 45 mins.): ++ (moderate contamination(10^3-10^5 cfu/ml))
- bacterial contamination ([1]; 750 ppm Ucarcide 250, sonicated 50 mins.): + (light contamination (10^0 and 10^3 cfu/ml))
- bacterial contamination ([1]; 750 ppm Ucarcide 250, sonicated 55 mins.): + (light contamination (10^0 and 10^3 cfu/ml))
- bacterial contamination ([1]; 750 ppm Ucarcide 250, sonicated 60 mins.): + (light contamination (10^0 and 10^3 cfu/ml))
- bacterial contamination ([1]; 1000 ppm Ucarcide 250, 3 days after sonication): +++ (heavy contamination(>10^5 cfu/ml))
- bacterial contamination ([1]; 1000 ppm Ucarcide 250, 7 days after sonication): +++ (heavy contamination(>10^5 cfu/ml))
- bacterial contamination ([1]; 1000 ppm Ucarcide 250, 14 days after sonication): +++ (heavy contamination(>10^5 cfu/ml))
- bacterial contamination ([1]; 1000 ppm Ucarcide 250, 28 days after sonication): +++ (heavy contamination(>10^5 cfu/ml))
- bacterial contamination ([1]; 1000 ppm Ucarcide 250, 90 days after sonication): +++ (heavy contamination(>10^5 cfu/ml))
- bacterial contamination ([1]; 1000 ppm Ucarcide 250, sonicated 0 mins.): +++ (heavy contamination(>10^5 cfu/ml))
- bacterial contamination ([1]; 1000 ppm Ucarcide 250, sonicated 5 mins.): +++ (heavy contamination(>10^5 cfu/ml))
- bacterial contamination ([1]; 1000 ppm Ucarcide 250, sonicated 10 mins.): +++ (heavy contamination(>10^5 cfu/ml))
- bacterial contamination ([1]; 1000 ppm Ucarcide 250, sonicated 15 mins.): +++ (heavy contamination(>10^5 cfu/ml))
- bacterial contamination ([1]; 1000 ppm Ucarcide 250, sonicated 20 mins.): ++ (moderate contamination(10^3-10^5 cfu/ml))
- bacterial contamination ([1]; 1000 ppm Ucarcide 250, sonicated 25 mins.): ++ (moderate contamination(10^3-10^5 cfu/ml))
- bacterial contamination ([1]; 1000 ppm Ucarcide 250, sonicated 30 mins.): + (light contamination (10^0 and 10^3 cfu/ml))
- bacterial contamination ([1]; 1000 ppm Ucarcide 250, sonicated 35 mins.): + (light contamination (10^0 and 10^3 cfu/ml))
- bacterial contamination ([1]; 1000 ppm Ucarcide 250, sonicated 40 mins.): + (light contamination (10^0 and 10^3 cfu/ml))
- bacterial contamination ([1]; 1000 ppm Ucarcide 250, sonicated 45 mins.): + (light contamination (10^0 and 10^3 cfu/ml))
- bacterial contamination ([1]; 1000 ppm Ucarcide 250, sonicated 50 mins.): + (light contamination (10^0 and 10^3 cfu/ml))
- bacterial contamination ([1]; 1000 ppm Ucarcide 250, sonicated 55 mins.): + (light contamination (10^0 and 10^3 cfu/ml))
- bacterial contamination ([1]; 1000 ppm Ucarcide 250, sonicated 60 mins.): + (light contamination (10^0 and 10^3 cfu/ml))
- bacterial contamination ([1]; 1500 ppm Ucarcide 250, 3 days after sonication): +++ (heavy contamination(>10^5 cfu/ml))
- bacterial contamination ([1]; 1500 ppm Ucarcide 250, 7 days after sonication): +++ (heavy contamination(>10^5 cfu/ml))
- bacterial contamination ([1]; 1500 ppm Ucarcide 250, 14 days after sonication): +++ (heavy contamination(>10^5 cfu/ml))
- bacterial contamination ([1]; 1500 ppm Ucarcide 250, 28 days after sonication): +++ (heavy contamination(>10^5 cfu/ml))
- bacterial contamination ([1]; 1500 ppm Ucarcide 250, 90 days after sonication): +++ (heavy contamination(>10^5 cfu/ml))
- bacterial contamination ([1]; 1500 ppm Ucarcide 250, sonicated 0 mins.): +++ (heavy contamination(>10^5 cfu/ml))
- bacterial contamination ([1]; 1500 ppm Ucarcide 250, sonicated 5 mins.): +++ (heavy contamination(>10^5 cfu/ml))
- bacterial contamination ([1]; 1500 ppm Ucarcide 250, sonicated 10 mins.): +++ (heavy contamination(>10^5 cfu/ml))
- bacterial contamination ([1]; 1500 ppm Ucarcide 250, sonicated 15 mins.): +++ (heavy contamination(>10^5 cfu/ml))
- bacterial contamination ([1]; 1500 ppm Ucarcide 250, sonicated 20 mins.): ++ (moderate contamination(10^3-10^5 cfu/ml))
- bacterial contamination ([1]; 1500 ppm Ucarcide 250, sonicated 25 mins.): + (light contamination (10^0 and 10^3 cfu/ml))
- bacterial contamination ([1]; 1500 ppm Ucarcide 250, sonicated 30 mins.): + (light contamination (10^0 and 10^3 cfu/ml))
- bacterial contamination ([1]; 1500 ppm Ucarcide 250, sonicated 35 mins.): + (light contamination (10^0 and 10^3 cfu/ml))
- bacterial contamination ([1]; 1500 ppm Ucarcide 250, sonicated 40 mins.): + (light contamination (10^0 and 10^3 cfu/ml))
- bacterial contamination ([1]; 1500 ppm Ucarcide 250, sonicated 45 mins.): + (light contamination (10^0 and 10^3 cfu/ml))
- bacterial contamination ([1]; 1500 ppm Ucarcide 250, sonicated 50 mins.): + (light contamination (10^0 and 10^3 cfu/ml))
- bacterial contamination ([1]; 1500 ppm Ucarcide 250, sonicated 55 mins.): + (light contamination (10^0 and 10^3 cfu/ml))
- bacterial contamination ([1]; 1500 ppm Ucarcide 250, sonicated 60 mins.): + (light contamination (10^0 and 10^3 cfu/ml))
